These are literature values, as cited in patent publication US20090088424A1, “METHODS AND COMPOSITIONS FOR CONTROLLING THE BIOAVAILABILITY OF POORLY SOLUBLE DRUGS” (priority 2007, published 2009).

Structures are written as SMILES. Values after ≈ are worked out from the molar mass of the structure shown.

Usually aqueous solubility stands for the concentration that dissolves in the medium under given conditions.

For the series the following is noted: pH 8.7, 25° C.

As for `O=C1Nc2ccc(Cl)cc2[C@@](C#CC2CC2)(C(F)(F)F)O1` [Efavirenz, (S)-6-chloro-4-(cyclopropylethynyl)-1,4-dihydro-4-(trifluoromethyl)-2H-3,1-benzoxazin-2-one], the aqueous solubility is 9.2 µg/mL (≈ 29.1 µM).
